Measurements from ChEMBL document CHEMBL3885861, “Open TG-GATES”.

Species: Rattus norvegicus
Test: Open TG-GATES - Regimen: Single
Format: toxicity, organism-based, Sprague-Dawley
Parameters: regimen Single, gender Male, age 6 weeks
Details: in vivo, po, 50 mg/kg, route gavage, dose level Middle; for APTT / Bas / Eos / Fbg / Hb / Ht / Lym / MCH / MCHC / MCV / Mono / Neu / PT / Plat / RBC / Ret / WBC: tissue Blood; for KIDNEY_L / KIDNEY_R / KIDNEY_TOTAL: tissue Kidney; for LIVER: tissue Liver; for A/G / ALP / ALT / AST / BUN / CRE / Ca / Cl / DBIL / GLC / IP / K / LDH / Na / PL / RALB / TBIL / TC / TG / TP / gamma-GTP: tissue Plasma

## O=c1ccc2ccccc2o1 [COUMARIN]
3 h
  TERMINAL_BW: 184.1 g
  APTT: 16.3 s
  Bas: 0%
  Eos: 0.6%
  Fbg: 198 mg/dL
  Hb: 13.4 g/dL
  Ht: 40.4%
  Lym: 81.4%
  MCH: 21.9 pg
  MCHC: 33.2%
  MCV: 65.9 fL
  Mono: 4%
  Neu: 14.2%
  PT: 12.7 s
  Plat: 114.8 x10_4/uL
  RBC: 613.6 x10_4/ul
  Ret: 9.3%
  WBC: 104.2 x10_2/uL
  KIDNEY_L: 0.9 g
  KIDNEY_R: 0.9 g
  KIDNEY_TOTAL: 1.7 g
  LIVER: 8.1 g
  A/G: 2.3
  ALP: 989.4 IU/L
  ALT: 39.4 IU/L
  AST: 68 IU/L
  BUN: 12 mg/dL
  CRE: 0.5 mg/dL
  Ca: 10.7 mg/dL
  Cl: 103.2 meq/L
  DBIL: 0.032 mg/dL
  GLC: 191.4 mg/dL
  IP: 10.4 mg/dL
  K: 4.7 meq/L
  LDH: 74.4 IU/L
  Na: 138 meq/L
  PL: 141 mg/dL
  RALB: 3.8 g/dL
  TBIL: 0.3 mg/dL
  TC: 76.4 mg/dL
  TG: 49.8 mg/dL
  TP: 5.5 g/dL
  gamma-GTP: 1 IU/L
6 h
  TERMINAL_BW: 180.4 g
  APTT: 16.5 s
  Bas: 0%
  Eos: 0.8%
  Fbg: 210.2 mg/dL
  Hb: 13.5 g/dL
  Ht: 40.4%
  Lym: 79.8%
  MCH: 21.7 pg
  MCHC: 33.3%
  MCV: 65 fL
  Mono: 5.8%
  Neu: 13.8%
  PT: 12.8 s
  Plat: 104.8 x10_4/uL
  RBC: 620.8 x10_4/ul
  Ret: 9.7%
  WBC: 103 x10_2/uL
  KIDNEY_L: 0.8 g
  KIDNEY_R: 0.9 g
  KIDNEY_TOTAL: 1.7 g
  LIVER: 7.7 g
  A/G: 2.1
  ALP: 1018 IU/L
  ALT: 37.2 IU/L
  AST: 70 IU/L
  BUN: 11.4 mg/dL
  CRE: 0.5 mg/dL
  Ca: 10.4 mg/dL
  Cl: 106 meq/L
  DBIL: 0.004 mg/dL
  GLC: 183 mg/dL
  IP: 10.2 mg/dL
  K: 5 meq/L
  LDH: 98.6 IU/L
  Na: 138.4 meq/L
  PL: 155.6 mg/dL
  RALB: 3.7 g/dL
  TBIL: 0.3 mg/dL
  TC: 89 mg/dL
  TG: 62.4 mg/dL
  TP: 5.6 g/dL
  gamma-GTP: 1.4 IU/L
9 h
  TERMINAL_BW: 175.7 g
  APTT: 16.7 s
  Bas: 0%
  Eos: 0.6%
  Fbg: 186.4 mg/dL
  Hb: 13.3 g/dL
  Ht: 40.2%
  Lym: 77.6%
  MCH: 22.1 pg
  MCHC: 33.2%
  MCV: 66.6 fL
  Mono: 6.2%
  Neu: 15.6%
  PT: 13 s
  Plat: 102.3 x10_4/uL
  RBC: 606 x10_4/ul
  Ret: 9.6%
  WBC: 95.4 x10_2/uL
  KIDNEY_L: 0.8 g
  KIDNEY_R: 0.8 g
  KIDNEY_TOTAL: 1.7 g
  LIVER: 7.2 g
  A/G: 2.1
  ALP: 1020.8 IU/L
  ALT: 38.6 IU/L
  AST: 74.2 IU/L
  BUN: 11.4 mg/dL
  CRE: 0.5 mg/dL
  Ca: 11.1 mg/dL
  Cl: 106 meq/L
  DBIL: 0.052 mg/dL
  GLC: 189.6 mg/dL
  IP: 10.7 mg/dL
  K: 5.1 meq/L
  LDH: 104.6 IU/L
  Na: 139 meq/L
  PL: 141.4 mg/dL
  RALB: 3.7 g/dL
  TBIL: 0.3 mg/dL
  TC: 79.4 mg/dL
  TG: 63 mg/dL
  TP: 5.5 g/dL
  gamma-GTP: 1 IU/L
24 h
  TERMINAL_BW: 189.1 g
  APTT: 15.5 s
  Bas: 0%
  Eos: 1.6%
  Fbg: 192 mg/dL
  Hb: 13.4 g/dL
  Ht: 40.2%
  Lym: 76.4%
  MCH: 22 pg
  MCHC: 33.4%
  MCV: 66 fL
  Mono: 11.4%
  Neu: 11.2%
  PT: 12.4 s
  Plat: 110.8 x10_4/uL
  RBC: 609 x10_4/ul
  Ret: 8.4%
  WBC: 100 x10_2/uL
  KIDNEY_L: 0.9 g
  KIDNEY_R: 0.9 g
  KIDNEY_TOTAL: 1.8 g
  LIVER: 9.4 g
  A/G: 2.3
  ALP: 978.2 IU/L
  ALT: 48 IU/L
  AST: 74.6 IU/L
  BUN: 15 mg/dL
  CRE: 0.6 mg/dL
  Ca: 10.9 mg/dL
  Cl: 105.8 meq/L
  DBIL: 0.012 mg/dL
  GLC: 186.8 mg/dL
  IP: 8 mg/dL
  K: 5.1 meq/L
  LDH: 113 IU/L
  Na: 138.2 meq/L
  PL: 140.2 mg/dL
  RALB: 3.8 g/dL
  TBIL: 0.3 mg/dL
  TC: 77 mg/dL
  TG: 66.6 mg/dL
  TP: 5.5 g/dL
  gamma-GTP: 1.2 IU/L
